Measured values taken from PubChem BioAssay AID1259411 (Chemical Carcinogenesis Research Information System (CCRIS), 2018).
Active and inactive are the calls of the source. No rule for the calls is given here.

Test system: rodent carcinogenicity bioassays, tumor incidence
Assay: CCRIS carcinogenicity studies
Summary of the method: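 Archive of carcinogenicity, mutagenicity, tumor promotion and tumor inhibition results drawn from journals, NCI reports and other sources, expert-reviewed; covers 1985-2011 and is no longer updated.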

In the case of `COc1ccc(CN(CCN(C)C)c2ccccn2)cc1`, the carcinogen call (Species: MOUSE, Strain/Sex: B6C3F1/FEMALE, Route: ORAL, Dose: 0, 150, 750, 1500 PPM IN DIET FOR 103 WK (STUDY DURATION: 103 WK), Dose: 0, 150, 750, 1500 PPM IN DIET FOR 103 WK (STUDY DURATION: 103 WK)) is reported as “inactive; negative”, the carcinogen call (Species: MOUSE, Strain/Sex: B6C3F1/MALE, Route: ORAL, Dose: 0, 150, 750, 1500 PPM IN DIET FOR 103 WK (STUDY DURATION: 104 WK), Dose: 0, 150, 750, 1500 PPM IN DIET FOR 103 WK (STUDY DURATION: 104 WK)) is reported as “inactive; negative” and the carcinogen call (Species: RAT, Strain/Sex: F344/FEMALE, Route: ORAL, Dose: 0, 300, 1500, 3000 PPM IN DIET FOR 2 YR (STUDY DURATION: 2 YR), Dose: 0, 300, 1500, 3000 PPM IN DIET FOR 2 YR (STUDY DURATION: 2 YR)) is reported as “inactive; negative”. For the same molecule, the carcinogen call (Species: RAT, Strain/Sex: F344/FEMALE, Route: ORAL, Dose: 0, 2000 PPM IN DIET (TOTAL DOSE: 120 G/KG) FOR 110 WK (STUDY DURATION: 133 WK)) was “inactive; negative”, the carcinogen call (Species: RAT, Strain/Sex: F344/FEMALE, Route: ORAL, Dose: 0, 2000 PPM IN DRINKING WATER (0.2%) 5 D/WK FOR 110 WK (TOTAL DOSE: 88 G/KG) (STUDY DURATION: 133 WK)) was “inactive; negative” and the carcinogen call (Species: RAT, Strain/Sex: F344/MALE, Route: ORAL, Dose: 0, 300, 1500, 3000 PPM IN DIET FOR 2 YR (STUDY DURATION: 2 YR), Dose: 0, 300, 1500, 3000 PPM IN DIET FOR 2 YR (STUDY DURATION: 2 YR)) was “inactive; negative”. For the same molecule, the carcinogen call (Species: RAT, Strain/Sex: F344/MALE, Route: ORAL, Dose: 0, 2000 PPM (0.2%) IN DRINKING WATER 5 D/WK FOR 110 WK (TOTAL DOSE: 55 G/KG) (STUDY DURATION: 133 WK)) was “inactive; negative”, the carcinogen call (Species: RAT, Strain/Sex: F344/MALE, Route: ORAL, Dose: O, 2000 PPM IN DIET (TOTAL DOSE: 110 G/KG) FOR 110 WK (STUDY DURATION: 133 WK)) was “inactive; negative” and the carcinogen call (Species: RAT, Strain/Sex: SPRAGUE-DAWLEY/FEMALE, Route: ORAL, Dose: 0, 500, 1000 PPM IN DRINKING WATER 5D/WK FOR LIFE (STUDY DURATION: 549-745 D), Dose: 0, 500, 1000 PPM IN DRINKING WATER 5D/WK FOR LIFE (STUDY DURATION: 549-745 D)) was “inactive; negative”. For the same molecule, the carcinogen call (Species: RAT, Strain/Sex: SPRAGUE-DAWLEY/MALE, Route: ORAL, Dose: 0, 500, 1000 PPM IN DRINKING WATER 5D/WK FOR LIFE (STUDY DURATION: 496-611 D), Dose: 0, 500, 1000 PPM IN DRINKING WATER 5D/WK FOR LIFE (STUDY DURATION: 496-611 D)) was “inactive; negative”.
`CCN(Cc1cccc(S(=O)(=O)O)c1)c1ccc(C(=C2C=CC(=[N+](CC)Cc3cccc(S(=O)(=O)O)c3)C=C2)c2ccccc2S(=O)(=O)[O-])cc1` was tested, and the carcinogen call (Species: MOUSE, Strain/Sex: CD-1/FEMALE, Route: ORAL, Dose: 0, 0.5, 1.5, 5% IN DIET FOR 104 WK (STUDY DURATION: LIFETIME), Dose: 0, 0.5, 1.5, 5% IN DIET FOR 104 WK (STUDY DURATION: LIFETIME)) was “inactive; negative”, the carcinogen call (Species: MOUSE, Strain/Sex: CD-1/MALE, Route: ORAL, Dose: 0, 0.5, 1.5, 5% IN DIET FOR 104 WK (STUDY DURATION: LIFETIME), Dose: 0, 0.5, 1.5, 5% IN DIET FOR 104 WK (STUDY DURATION: LIFETIME)) was “inactive; negative” and the carcinogen call (Species: MOUSE, Strain/Sex: ICR/FEMALE, Route: DERMAL, Dose: 0, 1 MG IN 0.1 ML DISTILLED WATER 2/WK FOR A MEAN TOTAL DOSE OF 128.8 MG (STUDY DURATION: 18 MO)) was “inactive; negative”. For the same molecule, the carcinogen call (Species: MOUSE, Strain/Sex: ICR/MALE, Route: DERMAL, Dose: 0, 1 MG IN 0.1 ML DISTILLED WATER 2/WK FOR A MEAN TOTAL DOSE OF 128.8 MG (STUDY DURATION: 18 MO)) was “inactive; negative”, the carcinogen call (Species: RAT, Route: SUBCUTANEOUS, Tumor Site: Type of Lesion: INJECTION SITE) was “active; positive” and the carcinogen call (Species: RAT, Strain/Sex: STRAIN-CD/FEMALE, Route: ORAL, Dose: 0, 0.1, 1, 2% IN DIET FOR 111 WK (PARENTS FED 0; 0.1; 1; 2% RESPECTIVELY IN DIET) (STUDY DURATION: LIFETIME), Dose: 0, 0.1, 1, 2% IN DIET FOR 111 WK (PARENTS FED 0; 0.1; 1; 2% RESPECTIVELY IN DIET) (STUDY DURATION: LIFETIME)) was “inactive; negative”. The carcinogen call (Species: RAT, Strain/Sex: STRAIN-CD/MALE, Route: ORAL, Dose: 0, 0.1, 1, 2% IN DIET FOR 116 WK (PARENTS FED 0; 0.1; 1; 2% RESPECTIVELY IN DIET) (STUDY DURATION: LIFETIME), Dose: 0, 0.1, 1, 2% IN DIET FOR 116 WK (PARENTS FED 0; 0.1; 1; 2% RESPECTIVELY IN DIET) (STUDY DURATION: LIFETIME)) was “inactive; negative”.
For `O=[N+]([O-])c1ccc2c3ccccc3c3cccc4ccc1c2c43`, the carcinogen call (Species: MOUSE, Strain/Sex: B6C3F1/MALE, Route: INTRAPERITONEAL, Dose: 0, 400 NMOL IN 35 µL DMSO ON DAYS 1 (1/7 TOTAL DOSE), 8 (2/7 TOTAL DOSE), AND 15 (4/7 TOTAL DOSE) AFTER BIRTH (STUDY DUR) was “inactive; negative”.
For `CN=C(NCc1cnc(Cl)s1)N[N+](=O)[O-]`, the carcinogen call (Species: Rat, Strain/Sex: ???/Female (60/group), Route: Oral, Dose: 0, 150, 500, 1,500, 3,000 ppm in diet for 2 yr, Dose: 0, 150, 500, 1,500, 3,000 ppm in diet for 2 yr) was “inactive; negative (study details not given in source; purity 95.2%)” and the carcinogen call (Species: Rat, Strain/Sex: ???/Male (60/group), Route: Oral, Dose: 0, 150, 500, 1,500, 3,000 ppm in diet for 2 yr, Dose: 0, 150, 500, 1,500, 3,000 ppm in diet for 2 yr) was “inactive; negative (study details not given in source; purity 95.2%)”.
In the case of `CCOC(=O)N(C)N=O`, the carcinogen call (Species: MOUSE, Route: INTRAPERITONEAL, Tumor Site: Type of Lesion: LUNG) is reported as “active; positive”, the carcinogen call (Species: MOUSE, Route: ORAL, Tumor Site: Type of Lesion: ESOPHAGUS, FORESTOMACH) is reported as “active; positive” and the carcinogen call (Species: RAT, Route: INTRAVENOUS, Tumor Site: Type of Lesion: LUNG) is reported as “active; positive”. For the same molecule, the carcinogen call (Species: RAT, Route: ORAL, Tumor Site: Type of Lesion: FORESTOMACH) was “active; positive”, the carcinogen call (Species: RAT, Strain/Sex: F344/FEMALE, Route: GAVAGE, Dose: 0, 0.35, 1.4 MG/ANIMAL IN CORN OIL 1/WK FOR 20 WK (STUDY DURATION: 114 WK), Dose: 0, 0.35, 1.4 MG/ANIMAL IN CORN OIL 1/WK FOR 20 WK (STUDY DURATION: 114 WK), Tumor Site: Type of Lesion: FORESTOMACH: CARCINOMA, ESOPHAGUS: CARCINOMA, PAPILLOMA) was “active; positive” and the carcinogen call (Species: RAT, Strain/Sex: F344/MALE, Route: ORAL, Dose: 20 PPM IN DRINKING WATER FOR 48 WK (STUDY DURATION: 104 WK), Tumor Site: Type of Lesion: FORESTOMACH: PAPILLOMA, SQUAMOUS CELL CARCINOMA) was “active; positive”.
With `Cc1ccc2cc3c(ccc4ccccc43)c3c2c1C=C3` the carcinogen call (Species: MOUSE, Strain/Sex: SWISS/FEMALE, Route: DERMAL, Dose: 0.2 UMOL IN 33.4 µL ACETONE TO SHAVED DORSAL SKIN 2/WK FOR 20 WK (STUDY DURATION: 52 WK), Tumor Site: Type of Lesion: SKIN: PAPILLOMA, KERATOACANTHOMA, EPIDERMAL CARCINOMA) was “active; positive”.
